US20180202388A1, “PISTON FOR AN INTERNAL COMBUSTION ENGINE AND METHOD FOR PRODUCING THE PISTON FOR AN INTERNAL COMBUSTION ENGINE” (FEDERAL-MOGUL NURNBERG GMBH, priority 2015, published 2018)
pIC50: −log10 of the molar value. Entries after “also recorded” stand apart in the source; their conditions may differ. One block for each molecule: values may come before it.

Assays:
[1] = system: human kinases (456 kinases); test: KINOMEscan in vitro kinase profiling (primary screen binding interactions, % Ctrl, S-score); conditions: for interaction with the 456 kinases tested: screened at 1 μM; for S-score, type S1 / S-score, type S10 / Number of hits/number of kinases, S10 / Number of hits/number of kinases, S1 / Kinase targets, S10 / Kinase targets, S1: tested at 1 μM; for S-score, type S1: S(1)=(number of kinases with % Ctrl<1)/(number of kinases tested); for S-score, type S10: S(10)=(number of kinases with % Ctrl <10)/(number of kinases tested); for Number of hits/number of kinases, S10: hits with % Ctrl <10; for Number of hits/number of kinases, S1: hits with % Ctrl<1; for Kinase targets, S10: kinases with % Ctrl <10; for Kinase targets, S1: kinases with % Ctrl<1
Method: An in vitro kinase profiling was conducted in order to evidence the absence of protein kinase inhibition by the compounds of the invention.
DiscoveRx (Ambit Biosciences) has developed a high-throughput system (KINOMEscan™) for screening of compounds against large numbers of human kinases (456 kinases).
The compounds of the invention were screened at the concentration of 1 μM, and results for primary screen binding interactions were reported as percent control (% Ctrl), where lower numbers indicate stronger hits. DMSO is used as a negative control (100% Ctrl) while a high affinity compound is used as a positive control (0% Ctrl). % Ctrl is calculated as follow: […]
Selectivity Score or S-score is a quantitative measure of compound selectivity. It is calculated by dividing the number of kinases that compounds bind to by the total number of distinct kinases tested, excluding mutant variants. S(10)=(number of kinases with % Ctrl <10)/(number of kinases tested), S(1)=(number of kinases with % Ctrl<1)/(number of kinases tested).

DLD1 = test: CellTiter-Blue cell-based survival/proliferation assay, DLD1; conditions: Homo sapiens, DLD-1; Colorectal; DLD_1; 48 h
Method: (§1) Compounds of formula (I) were tested against a panel of about 34 human tumor cell lines representing 17 cancer type, namely leukemia (represented by 1 cell line), lymphoma (4 cell lines), myeloma (1 cell line), colorectal (2 cell lines), head and neck (3 cell lines), lung (3 cell lines), melanoma (2 cell lines), pancreas (2 cell lines), prostate (2 cell lines), ovary (2 cell lines) breast (2 cell lines), kidney (2 cell lines), stomach (2 cell lines), liver (2 cell lines), glioblastoma (2 cell lines), osteosarcoma (1 cell line), Ewing Sarcoma (1 cell line).
(§2) CellTiter-Blue cell-based survival/proliferation assay (Promega G8080) was performed on tumor cell lines. A total of 1.10^4 cells/well/50 μl were seeded in a 96-wells plate. Treatment was initiated by addition of a 2× drug solution of 1/10 serial dilutions ranging from 0 to 10 μM. Cells were grown for 48 h at 37° C. and then incubated with 10 μl/well of Promega CellTiter-Bleue reagent for 4 h at 37° C. The amount of resorufin dye formed was quantified by its fluorescence emission at 590 nm using a scanning multiwell spectrophotometer (OPTIMA, BMG labtech, France). A blank well without cells was used as a background control for the spectrophotometer.

ACHN = test: CellTiter-Blue cell-based survival/proliferation assay, ACHN; conditions: Homo sapiens, Kidney, 48 h
Method: as §1, §2

PLCPRF5 = test: CellTiter-Blue cell-based survival/proliferation assay, PLCPRF5; conditions: Homo sapiens, PLC-PRF-5; Liver; PLC_PRF5; 48 h
Method: as §1, §2

AGS = test: CellTiter-Blue cell-based survival/proliferation assay, AGS; conditions: Homo sapiens, Stomach, 48 h
Method: as §1, §2

MESSA = test: CellTiter-Blue cell-based survival/proliferation assay, MESSA; conditions: Homo sapiens, MES-SA, Ovary, 48 h
Method: as §1, §2

HL60 = test: CellTiter-Blue cell-based survival/proliferation assay, HL60 (leukemia); conditions: Homo sapiens, HL-60; HL60 cells, 48 h; read-out: Anti-tumoral activity (measured IC50), Leukemia HL60
Method: as §1, §2

A498 = test: CellTiter-Blue cell-based survival/proliferation assay, A498; conditions: Homo sapiens, Kidney, 48 h
Method: as §1, §2

CALU6 = test: CellTiter-Blue cell-based survival/proliferation assay, CALU6; conditions: Homo sapiens, Calu-6, Lung, 48 h
Method: as §1, §2

BT20 = test: CellTiter-Blue cell-based survival/proliferation assay, BT20; conditions: Homo sapiens, BT-20, Breast, 48 h
Method: as §1, §2

HEP2 = test: CellTiter-Blue cell-based survival/proliferation assay, HEP2; conditions: Homo sapiens, HEp-2, Head & Neck, 48 h
Method: as §1, §2

HGC27 = test: CellTiter-Blue cell-based survival/proliferation assay, HGC27; conditions: Homo sapiens, HGC-27, Stomach, 48 h
Method: as §1, §2

BXPC3 = test: CellTiter-Blue cell-based survival/proliferation assay, BXPC3; conditions: Homo sapiens, BXPC-3, Pancreas, 48 h
Method: as §1, §2

TOV112D = test: CellTiter-Blue cell-based survival/proliferation assay, TOV112D; conditions: Homo sapiens, Ovary, 48 h
Method: as §1, §2

OPM2 = test: CellTiter-Blue cell-based survival/proliferation assay, OPM2 (myeloma); conditions: Homo sapiens, OPM-2; OPM2 cells, 48 h; read-out: Anti-tumoral activity (measured IC50), Myeloma OPM2
Method: as §1, §2

H1299 = test: CellTiter-Blue cell-based survival/proliferation assay, H1299; conditions: Homo sapiens, NCI-H1299, Lung, 48 h
Method: as §1, §2

SW579 = test: CellTiter-Blue cell-based survival/proliferation assay, SW579; conditions: Homo sapiens, Head & Neck, 48 h
Method: as §1, §2

HCT116 = test: CellTiter-Blue cell-based survival/proliferation assay, HCT116; conditions: Homo sapiens, HCT-116, Colorectal, 48 h
Method: as §1, §2

MDAMB231 = test: CellTiter-Blue cell-based survival/proliferation assay, MDAMB231; conditions: Homo sapiens, MDA-MB-231, Breast, 48 h
Method: as §1, §2

HEPG2 = test: CellTiter-Blue cell-based survival/proliferation assay, HEPG2; conditions: Homo sapiens, Liver, 48 h
Method: as §1, §2

PC3 = test: CellTiter-Blue cell-based survival/proliferation assay, PC3; conditions: Homo sapiens, PC-3, Prostate, 48 h
Method: as §1, §2

CLS354 = test: CellTiter-Blue cell-based survival/proliferation assay, CLS354; conditions: Homo sapiens, CLS-354; Head & Neck; CLS354_4; 48 h
Method: as §1, §2

A549 = test: CellTiter-Blue cell-based survival/proliferation assay, A549; conditions: Homo sapiens, Lung, 48 h
Method: as §1, §2

DU145 = test: CellTiter-Blue cell-based survival/proliferation assay, DU145; conditions: Homo sapiens, DU-145, Prostate, 48 h
Method: as §1, §2

PANC1 = test: CellTiter-Blue cell-based survival/proliferation assay, PANC1; conditions: Homo sapiens, PANC-1; Pancreas; PANC_1; 48 h
Method: as §1, §2

interaction with the 456 kinases tested [1]: do not efficiently interact
S-score, type S1 [1]: 0.000
S-score, type S10 [1]: 0.002
Number of hits/number of kinases, S10 [1]: 1/456
Number of hits/number of kinases, S1 [1]: 0/456
Kinase targets, S10 [1]: CDKL3
Compound: CCOCc1ccc(C)c(Nc2ncc(-c3ccc(-n4cccn4)cc3)o2)c1 [Example 033, (5-Ethoxymethyl-2-methyl-phenyl)-[5-(4-pyrazol-1-yl-phenyl)-oxazol-2-yl]-amine]

Compound: CCOCc1ccc(C)c(Nc2nc(-c3ccc(-n4cccn4)nc3)cs2)c1 [Example 062, 4-(6-(1H-pyrazol-1-yl)pyridin-3-yl)-N-(5-(ethoxymethyl)-2-methylphenyl)thiazol-2-amine]
pIC50 (DLD1): < 6.00
pIC50 (ACHN): < 6.00
pIC50 (PLCPRF5): < 6.00
pIC50 (AGS): < 6.00
pIC50 (MESSA): < 6.00
pIC50 (HL60): 6.30 to 7.00
pIC50 (A498): < 6.00
pIC50 (CALU6): < 6.00
pIC50 (BT20): < 6.00
pIC50 (HEP2): 6.00 to 6.30
pIC50 (HGC27): < 6.00
pIC50 (BXPC3): < 6.00
pIC50 (TOV112D): ≥ 7.00
pIC50 (OPM2): 6.30 to 7.00
pIC50 (H1299): < 6.00
pIC50 (SW579): < 6.00
pIC50 (HCT116): < 6.00
pIC50 (MDAMB231): < 6.00
pIC50 (HEPG2): < 6.00
pIC50 (PC3): < 6.00
pIC50 (CLS354): 6.00 to 6.30
pIC50 (A549): < 6.00
pIC50 (DU145): < 6.00
pIC50 (PANC1): < 6.00

interaction with the 456 kinases tested [1]: do not efficiently interact
S-score, type S1 [1]: 0.000
S-score, type S10 [1]: 0.000
Number of hits/number of kinases, S10 [1]: 0/456
Number of hits/number of kinases, S1 [1]: 0/456
Kinase targets, S1 [1]: None
Compound: CCOCc1ccc(C)c(Nc2ncc(-c3ccc(N4CCNC4=O)cc3)o2)c1 [Example 006, 1-{4-[2-(5-Ethoxymethyl-(2-methyl-phenylamino))-oxazol-5-yl]-phenyl}-imidazolidin-2-one]

interaction with the 456 kinases tested [1]: do not efficiently interact
S-score, type S1 [1]: 0.002
S-score, type S10 [1]: 0.009
Number of hits/number of kinases, S10 [1]: 4/456
Number of hits/number of kinases, S1 [1]: 1/456
Kinase targets, S1 [1]: PDGFRB
Compound: CCOCc1ccc(C)c(Nc2nc(-c3ccc(N4CCNC4=O)cc3)cs2)c1 [Example 003, 1-{4-[2-(5-Ethoxymethyl-(2-methyl-phenylamino))-thiazol-4-yl]-phenyl}-imidazolidin-2-one]
Kinase targets, S10 [1]: KIT, KIT V559D,; also recorded: KIT L576P
